According to patent US9597361B2, “Treating a bacterial skin infection with a whole, leech saliva extract” (priority 2012, dated 2017):

Key:
[1] = test system: Pseudomonas aeruginosa ATCC27853; assay: Kirby-Bauer disc diffusion; conditions: ATCC27853, read-out: Zone of inhibition, P. auroginosa
[2] = test system: Escherichia coli ATCC35218; assay: Kirby-Bauer disc diffusion; conditions: ATCC35218, read-out: Zone of inhibition, E. coli
Salmonella typhi = assay: Kirby-Bauer disc diffusion; format: cell-based; conditions: Salmonella enterica, read-out: Zone of inhibition, Sal. typhi
[3] = test system: Staphylococcus aureus ATCC25923; assay: Kirby-Bauer disc diffusion; conditions: ATCC25923, read-out: Zone of inhibition, S. aureus
[4] = test system: Bacillus cereus ATCC25923; assay: Kirby-Bauer disc diffusion; conditions: ATCC25923, read-out: Zone of inhibition, B. cereus
[5] = test system: alloxan-induced diabetic rats; assay: Antihyperglycemic activity: fasting blood glucose in alloxan-induced diabetic rats
Method: Male rats of Sprague Dawley strain (SD) (from Mikro Makmur Enterprise, Kuantan, Pahang Darul Makmur, Malaysia) were grouped randomly and kept at an animal post-graduate laboratory in Kulliyyah of Pharmacy, International Islamic University Malaysia (IIUM), maintained with an air conditioning system and exhaust fans. The rats were under a 12 h/12 h dark and light cycle at room temperature (25° C.). They were acclimatized to these conditions for one week prior to the experiment and housed in polypropylene cages lined with pine wood husk changed every two days. The rats were given free access to tap water and a commercial dry pellet diet, Gold Coin. The experimental procedures were conducted according to Principles and Guide to Ethical Use of Laboratory Animals approved by Ministry of Health Malaysia (Sinniah & Hussein, 2000). […]
After 24 hours of alloxanisation, the fasting blood glucose concentration (FBG) was measured every morning to check the diabetic state of the injected rats. […]
Fasting blood glucose (FBG) at two-hour intervals was recorded during the experiment period for all the experimental animals. The percentage decrease in fasting blood glucose concentration was calculated from the following equation (Madubunyi, Onoja, & Asuzu, 2010):

## O=C(O)c1cn(C2CC2)c2cc(N3CCNCC3)c(F)cc2c1=O [Cipro, ciprofloxacin]
[1]
  zone of inhibition at 5 µg/disc: 24 mm
[2]
  zone of inhibition at 5 µg/disc: 26 mm
Salmonella typhi
  zone of inhibition at 5 µg/disc: 35 mm
[3]
  zone of inhibition at 5 µg/disc: 24 mm
[4]
  zone of inhibition at 5 µg/disc: 28 mm

## insulin: insulin from bovine pancreas (≧27 units/mg), suspension in distilled water
[5]; after two hours of injection (LSE p<0.05; insulin p<0.001)
  fasting blood glucose (FBG): sharp significant decrease
[5]; insulin 10 units/kg b.w s.c., after 8 hours of treatment
  fasting blood glucose (FBG): returned to the diabetic state
